Test results reported in article PMC5411871 (African Journal of Traditional, Complementary, and …, 2016).

Molecular target: T1, Lipoxygenase (type I-B) (Glycine max, UniProt P08170)
T1 sequence (P08170 1-839): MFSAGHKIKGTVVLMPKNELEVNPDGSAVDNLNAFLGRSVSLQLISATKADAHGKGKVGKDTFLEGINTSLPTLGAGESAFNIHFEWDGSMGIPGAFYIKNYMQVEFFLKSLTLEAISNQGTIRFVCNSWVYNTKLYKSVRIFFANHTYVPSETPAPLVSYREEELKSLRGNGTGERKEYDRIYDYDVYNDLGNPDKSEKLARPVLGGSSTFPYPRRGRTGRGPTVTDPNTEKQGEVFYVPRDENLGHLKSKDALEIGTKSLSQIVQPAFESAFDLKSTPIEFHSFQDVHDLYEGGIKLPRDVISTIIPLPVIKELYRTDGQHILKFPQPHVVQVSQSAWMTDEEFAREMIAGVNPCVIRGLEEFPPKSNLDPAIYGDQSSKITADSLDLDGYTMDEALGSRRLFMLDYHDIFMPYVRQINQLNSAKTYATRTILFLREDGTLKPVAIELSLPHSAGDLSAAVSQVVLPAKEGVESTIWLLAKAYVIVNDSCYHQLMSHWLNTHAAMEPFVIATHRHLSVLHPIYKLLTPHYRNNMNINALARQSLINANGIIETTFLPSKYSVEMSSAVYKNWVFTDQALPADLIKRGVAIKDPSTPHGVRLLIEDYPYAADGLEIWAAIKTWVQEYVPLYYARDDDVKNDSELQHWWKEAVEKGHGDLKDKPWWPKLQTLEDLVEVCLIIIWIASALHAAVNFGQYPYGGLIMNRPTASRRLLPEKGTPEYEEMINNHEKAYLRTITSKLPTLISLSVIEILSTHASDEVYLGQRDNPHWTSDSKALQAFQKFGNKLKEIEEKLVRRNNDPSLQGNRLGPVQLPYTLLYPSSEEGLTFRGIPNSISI
Assay: absorbance at […] nm, linoleic acid oxidation
Assay type: biochemical

| SMILES | IC50 [µM] |
| --- | --- |
| C[C@H]1C(=O)CC[C@@H]2[C@]1(C)CC[C@H]1[C@@]2(C)CC[C@@]2(C)[C@@H]3CC(C)(C)CC[C@]3(C)CC[C@]12C [compound 1, friedelin] | 57.3 |
| CC1(C)C[C@@H](O)[C@]2(C)CC[C@]3(C)C(=CC[C@@H]4[C@@]5(C)CC[C@H](O)C(C)(C)[C@@H]5CC[C@]43C)[C@@H]2C1 [compound 3, sopharadiol] | 54 |
